Patent US12054497B2, “Substituted heterocyclic fused cyclic compound, preparation method therefor and pharmaceutical use thereof” (GENFLEET THERAPEUTICS (SHANGHAI) INC., priority 2019, dated 2024)
Where two headings read alike, the source gives them in different places.

Tests used:
[1] = tested on: A549 cells with Kras G12S mutation; assay: Cell proliferation inhibition experiment, 3D spheroid, CellTiter-Glo (Test Example 1); format: cell-based, human; settings: 5 days
How it was run: (§1)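 NCI-H358 (800 cells/well) and A549 (400 cells/well) grown overnight as 3D spheroids in 2% FBS medium, then exposed to compound dilution series (3.16-fold, 0.1% DMSO) for 5 days. CellTiter-Glo luminescence read; inhibition relative to DMSO and blank, IC50 by four-parameter fit.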

[2] = tested on: NCI-H358 cells with Kras G12C mutation; assay: as above; format: cell-based, human; settings: 5 days
How it was run: as §1

[3] = tested on: phosphorylated ERK in MIA PaCa2 cells with Kras G12C mutation; assay: p-ERK HTRF assay for cells (Test Example 2); format: cell-based, human; settings: MIA PaCa2 cells, 2 hours with compound, read-out: p-ERK IC50
How it was run: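 MIA PaCa2 cells (2.5E4/well, seeded overnight) treated 2 h with compound in a 3.16-fold series at 0.1% DMSO. Cells lysed 30 min; p-ERK read by HTRF after 4 h antibody incubation. Inhibition relative to DMSO and blank; IC50 by four-parameter fit.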

[4] = tested on: MIA PaCa-2 cells with Kras G12C mutation; assay: Cell proliferation inhibition experiment, 3D spheroid, CellTiter-Glo (Test Example 3); format: cell-based, human; settings: Homo sapiens, MIA PaCa-2, 120 h, 5 days, read-out: MIA-PaCa2 IC50
How it was run: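 MIA PaCa-2 spheroids (200 cells/well) were formed overnight, then exposed for 5 days to compounds in 3.16-fold dilutions at 0.1% DMSO. Viability was read by CellTiter-Glo luminescence, and inhibition was normalised to DMSO control and medium blank. IC50 came from a four-parameter fit.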

KRas G12C = KRas G12C (Homo sapiens (Human), UniProt P01116, G12C); assay: Nucleotide exchange assay (NEA)-HTRF, SOS1 catalyzed displacement of GDP by GTP (Test Example 4); format: biochemical
Protocol: The effects of compounds on SOS1 catalyzed displacement of GDP by GTP on KRas proteins was examined by homogeneous time-resolved fluorescence (HTRF). 30 μM 6×his labeled KRas G12C recombinant protein and 80 μM fluorochrome DY647 labeled GDP were co-incubated in a labeling buffer (1 mM DTT, 7.5 mM EDTA, 25 mM Tris-HCl, 45 mM NaCl) at 20° C. away from light for 2 hours. Protein quantification was performed after purification on the NAP-5 column to determine the concentration of KRas G12C-GDP.
1000× stock solutions of compounds at a concentration gradient of 3.16 were prepared by using DMSO, and diluted 250 times by a reaction buffer (40 mM N-2-hydroxyethylpiperazine-N-2-ethane sulfonic acid (HEPES), 10 mM MgCl2, 1 mM DTT, 0.002% Triton X-100) into 4× stock solutions of compounds. KRas G12C-GDP/Tb working solution (40 nM KRas G12C-GDP, 1×anti-his Tb) and SOS1/GTP working solution (0.2 μM SOS1, 200 μM GTP) were prepared by using the reaction buffer.
5 μl of 4×stock solution of a compound and 10 μl of KRas G12C-GDP/T working solution were added to each well of 96-well plate with white unclear bottom, and 5 μl of reaction buffer was added to the well of control group in stead of the 4×stock solution of a compound. After incubation at 20° C. away from light for 15 minutes, 5 μl of SOS1/GTP working solution was added and incubated at 20° C. away from light for 2 hours, and then a value of fluorescence intensity was read (excitation wavelength: 320 nm, and emission wavelengths: 615 nm and 665 nm). Besides, group TO was established with 10 μl of the reaction buffer and 10 μl of the KRas G12C-GDP/Tb working solution, and the value of fluorescence intensity was directly read. A relative light unit (RLU) was calculated by the following equation: RLU=(665 nm signal/615 nm signal)×10^4; and the inhibition rate (IR) of the compound was calculated by the following equation: IR (%)=(RLUcompound−RLUcontrol)/(RLUT0−RLUcontrol)×100%. The value of IC50 was calculated by fitting a gradiently diluted concentration of the compound and the corresponding cell proliferation inhibition rate using a four-parameter method.

[5] = tested on: subcutaneous xenograft tumor model of MIA PaCa-2; assay: In vivo pharmacodynamic experiment, tumor growth inhibition (Test Example 5); parameters: species or system BALB/c nude mice; settings: p.o., QD; for TGI: day 14
Protocol: Experimental objective: to evaluate the in vivo pharmaceutical effects of tested compounds on the subcutaneous xenograft tumor model of MIA PaCa-2.
Experimental operation: 6 to 8 weeks old female BALB/c nude mice each having the body weight of 18-20 g were chosen. MIA PaCa-2 cells were cultured in DMEM containing 10% FBS, 2.5% HS and 1% penicillin-streptomycin at 37° C. in an incubator with 5% CO2. Cells were collected. The MIA PaCa-2 cells were subcutaneously inoculated to the animals at their backs on the right, 2.0×10^6 cells (0.1 mL) for each animal. When tumor grew to 190-311 mm^3, mice with tumor having a suitable size were chosen and treated in groups, with administration dosages shown in Table 5 below. The animals were weighed on an electronic balance each day. The tumor volume was investigated by using a vernier caliper twice a week. The tumor volume was calculated by the following equation: V=0.5 a×b^2, a and b representing the long diameter and the short diameter of the tumor, respectively. The tumor volume was used to calculate a tumor growth inhibition rate (TGI), and the TGI shown in the form of a percentage was used to indicate the antineoplastic activity of a compound. The TGI was calculated by the following equation: TGI (%)=[1−avTi−0/avCi−0)]×100, with avTi−0 representing the average tumor volume of the group administrated with the compound on a specific day minus the average tumor volume of this group on the day of grouping, and avCi−0 representing the average tumor volume of the solvent control group on a specific day minus the average tumor volume of the solvent control group on the day of grouping. The tumor volume was shown in the form of an average value±standard error of mean (SEM).

[6] = Pharmacokinetic evaluation on mice, intravenous administration (Test Example 6); format: in vivo; settings: male CD-1 mice, IV 2 mg/kg
Protocol: (§2) Experimental objective: male CD-1 mice were chosen as tested animals, and the LC-MS-MS method was employed to measure the concentrations of a tested compound in blood plasma of a mouse intravenously and intragastrically administrated with the tested compound at different times. The pharmacokinetic behaviors of tested compounds in mice were studied, and the pharmacokinetic characteristics thereof were evaluated.
(§3) Experimental scheme: experimental animals: 18 healthy adult male CD-1 mice (6 to 8 weeks old, and body weight about 30 g) were divided into 6 groups according to the principle of similar body weights: 3 mice in each of IV groups (3 groups), and 3 mice in each of PO groups (3 groups). The animals were purchased from Shanghai Jihui Laboratory Animal Care Co., Ltd.
(§4) Formulation: IV group: taking 10 mL of sample solution for example, 4 mg of sample was weighed, orderly added with 0.5 mL of DMSO and […], then added with […] of HP-p-CD, finally added with water to a constant volume of 10 mL, and stirred and subjected to ultrasonic irradiation, thereby obtaining a 0.4 mg/mL clear solution. PO group: an appropriate amount of sample was weighed, orderly added with appropriate amounts of Labrasol and water in a volume ratio of 10:40, and stirred and subjected to ultrasonic irradiation, thereby obtaining a 1.5 mg/mL uniform solution.
(§5) Administration: after being deprived of food for one night, the IV groups were intravenously administrated with the formulated solutions, respectively, with an injection volume of 5 mL/kg and a dosage of 2 mg/kg. The PO groups were intragastrically administrated with the formulated solutions, respectively, with an injection volume of […] and a dosage of 15 mg/kg.
(§6) Experimental operations: after the intravenous injection groups and the intragastric administration groups of the male CD-1 mice were administrated with the tested compounds, 110 ul of blood was sampled at the following time points: 0.0833, 0.25, 0.5, 1, 2, 4, 6, 8, and 24 hours. The sampled blood was placed into an anticoagulant tube which was added with K2EDTA in advance and preserved in dry ice. The tube was centrifuged for 15 minutes to separate blood plasma, and the separated blood plasma was preserved at −70° C. The animals were allowed to be fed after 4 hours of administration. The LC-MS-MS method was employed to measure the concentration of the tested compounds in the blood plasma after the intravenous and intragastric administration to the mice. The linear range of the method was 1-3000 ng/ml. The blood plasma samples were analyzed after protein precipitation with ACN.

[7] = Pharmacokinetic evaluation on mice, intragastric (PO) administration (Test Example 6); format: in vivo; settings: PO 15 mg/kg, male CD-1 mice
Protocol: as §2, §3, §4, §5, §6

Sequence of KRas G12C (P01116-2 other isoform, or with tags, fused parts or gaps G12C): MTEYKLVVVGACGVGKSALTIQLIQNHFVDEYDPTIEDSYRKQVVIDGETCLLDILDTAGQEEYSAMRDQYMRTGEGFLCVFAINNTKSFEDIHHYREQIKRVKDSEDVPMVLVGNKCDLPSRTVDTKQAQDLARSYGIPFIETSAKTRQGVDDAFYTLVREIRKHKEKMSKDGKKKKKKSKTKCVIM

Structure (SMILES)	IC50 ([1]; Homo sapiens, A549, 120 h)	IC50 ([2]; Homo sapiens, NCI-H358, 120 h)	IC50 ([3]; Homo sapiens, MIA PaCa-2, 2 h)	IC50 [4]	IC50 (KRas G12C)	IC50 [2]	further results
C=CC(=O)N1C[C@@H]2C(=O)N(C)c3c(c4cc(C5CC5)c(-c5c(O)cccc5F)nc4n(-c4c(C)ccnc4C(C)C)c3=O)N2C[C@H]1C [Compound Z31, (2R,4aR)-3-acryloyl-11-cyclopropyl-10-(2-fluoro-6-hydroxyphenyl)-8-(2-isopropyl-4-methylpyridin-3-yl)-2,6-dimethyl-2,3,4,4a,6,8-hexahydro-1H-pyrazino[1′,2′:4,5]pyrazino[2,3-c][1,8]naphthyridin-5,7-dione]	9490 nM	17 nM	206 nM	59 nM	151 nM		
C=CC(=O)N1CCN2c3c(c(=O)n(-c4c(C)ccnc4C(C)C)c4nc(-c5c(O)cccc5F)c(Cl)cc34)NC(=O)[C@H]2C1 [Compound Z24, (4aR)-3-acryloyl-11-chloro-10-(2-fluoro-6-hydroxyphenyl)-8-(2-isopropyl-4-methylpyridin-3-yl)-2,3,4,4a,6,8-hexahydro-1H-pyrazino[1′,2′:4,5]pyrazino[2,3-c][1,8]naphthyridin-5,7-dione]	28100 nM	3 nM	113 nM	9 nM	58 nM		
C=CC(=O)N1CCN(c2nc(=O)n(-c3c(C)ccnc3C(C)C)c3nc(-c4c(O)cccc4F)c(F)cc23)[C@@H](C)C1 [AMG 510, reference compound]							Tumor Volume on Day 14 after Administration ([5]; 1 mg/kg): 314.28 mm^3; TGI ([5]; 1 mg/kg): 82.8%; Tumor Volume on Day 14 after Administration ([5]; 3 mg/kg): 205.35 mm^3; TGI ([5]; 3 mg/kg): 109.1%; Tumor Volume on Day 14 after Administration ([5]; 10 mg/kg): 81.72 mm^3; TGI ([5]; 10 mg/kg): 138.9%; Cl (clearance rate) [6]: 73.2 mL/min/kg; T1/2 (half-life) [6]: 19.1 min; Vd (volume of distribution) [6]: 1.15 L/kg; F (bioavailability) [7]: 36.10%; Cmax ([7]; plasma): 1221 ng/mL; Tmax ([7]; plasma): 60 min
C=CC(=O)N1C[C@@H]2C(=O)N(C)c3c(c4cc(Cl)c(-c5c(O)cccc5F)c(F)c4n(-c4c(C(C)C)ncnc4C(C)C)c3=O)N2C[C@H]1C [Compound Z50]	28300 nM	0.5 nM	7 nM	2 nM	19 nM		
C=CC(=O)N1CCN2c3c(c(=O)n(-c4c(C)ccnc4C(C)C)c4nc(-c5c(O)cccc5F)c(F)cc34)N(CC)C(=O)[C@H]2C1 [Compound Z30, (4aR)-3-acryloyl-6-ethyl-11-fluoro-10-(2-fluoro-6-hydroxyphenyl)-8-(2-isopropyl-4-methylpyridin-3-yl)-2,3,4,4a,6,8-hexahydro-1H-pyrazino[1′,2′:4,5]pyrazino[2,3-c][1,8]naphthyridin-5,7-dione]	> 30000 nM		676 nM	140 nM	656 nM	51 nM	
C=CC(=O)N1CCN2c3c(c(=O)n(-c4c(C)ccnc4C(C)C)c4nc(-c5c(O)cccc5F)c(Cl)cc34)NC(=O)[C@H]2C1 (single isomer, unassigned) [Compound Z24-2]				4 nM	38 nM	3 nM	IC50 [1]: 11300 nM; IC50 [3]: 61 nM
